# US20130143825A1, “COMPOUNDS FOR USE IN THE TREATMENT OF DISEASES BASED ON THE EXPRESSION OF TOXIC TRANSCRIPTS” (UNIVERSITAT DE VALENCIA, priority 2010, published 2013)
# Non-standard residues stand in square brackets, D forms with d. No end group written: not given here.
# Assays:
# [1] = system: MBNL1 binding to the CUG repeats; conditions: in vitro; cited from earlier work
# [2] = system: FAM-(CUG)23 RNA; assay: Fluorescence gel retardation assay with FAM-(CUG)23; assay type: binding; conditions: peptide 2.5 mM, RNA 60 nM
# From the text: The changes on the RNA caused by p10 in the FP assay are small, probably due to the low molecular weight of the molecule (less than 900 Da). For this reason, it was decided to supplement the study with gel retardation experiments. These assays are based on the differences in electrophoretic mobility between stable protein-nucleic acid complexes and their components separately. Since the FAM-(CUG)23 RNA was available, it was decided to prepare a fluorescence gel retardation assay. After determining the optimal quantity of RNA for detection (60 nM; FIG. 21A), the binding between the latter and MblZF was studied. Said binding caused both a decrease in the intensity of the band corresponding to the free RNA in the gel and the appearance of a signal in the interior of the gel wells (bound RNA).
# In order to determine whether p10 could bind to CUG RNA molecules, it was decided to perform a similar gel retardation experiment between the peptide and FAM-(CUG)23. p10 bound to the RNA, with part of the complex being retained in the well, as described for MblZF. […] This affinity decreased upon decreasing the size of the repeats (FAM-(CUG)4, FIG. 24C). […] This could be due either to a synergic effect between the protein and the peptide or to an additive effect if both should bind to different RNA sites.
# In order to study the specificity of the binding observed between p10 and the CUG repeats, two experiments were performed. In the first place, the five hexapeptides generated during the alanine scanning were assayed. […] In the second place, we studied the effect of p10 on other RNA and DNA sequences, both double-stranded and single-stranded, fluorescently labelled with carboxyfluorescein (FAM) (FIG. 25C).
# [3] = system: 103Y-Gal4/+;UAS-CTG(480)/+ flies; assay: Lethality phenotype in pupae caused by expression of 480 CTG under 103Y-Gal4 (females born); assay type: in vivo, Drosophila; conditions: administered to larvae in the food; compared with p10
# Experimental: The 120 vials that make up the chemical library were individually assayed on the lethality phenotype in pupae caused by the expression of 480 CTG under the control of 103Y-Gal4 at a concentration of 80 μM. […] Thus, for positions O1, O2, O3, O4, O5 and O6 of the hexapeptide, a total of six, three, six, four, two and seven active amino acids were obtained, respectively (FIG. 2A). In order to perform the deconvolution, 10 of these 28 amino acids were selected, on the basis of their degree of activity in the biological assay (FIG. 2A). Finally, of the possible combinations, 16 sequences were selected to perform the synthesis of the defined hexapeptides (FIG. 2B). The selection of these 16 peptides was based on redundancy criteria between the physical and chemical properties of active amino acids in similar positions.
# At 250 μM, the activity of the peptide decreased, possibly due to a toxic effect of the peptide at higher concentrations.
# In order to determine the contribution of each of the p10 residues to their activity on CTG(480), an alanine scanning experiment was performed. These experiments are based on substituting every amino acid of the peptide with alanine and keeping the rest. Alanine is a small amino acid and, in general, not very active; this is why it is used for this type of studies. Since each alanine substitution examines the contribution of an individual amino acid, this experiment makes it possible, on the one hand, to evaluate whether p10 is susceptible to optimisation (in the event that a substitution increases the efficacy of the molecule), or to determine which amino acids are important for its function (in the event that a substitution decreases the activity thereof). The sequence of p10 allows for 5 substitutions; for this reason, 5 new hexapeptides were synthesised which were assayed in relation to the lethality phenotype in 103Y-Gal4; UAS-CTG(480)/+ flies and commercial food.
# [4] = system: 103Y-Gal4/+;UAS-CTG(480)/+ flies; assay: as above; assay type: in vivo, Drosophila; conditions: females born vs DMSO control
# [5] = system: 2-AP-(CUG)23 RNA; assay: 2-aminopurine fluorescence assay (hairpin opening); assay type: biochemical; conditions: for destructuration of CUG23 probe, comparative 2-aminopurine assay: 100 μM
# Experimental: Measurements of the fluorescence emitted (Y-axis), measured as relative fluorescence units (RFU), by 2-aminopurine in a (CUG)23 RNA (1 μM) in the presence of MblZF (0.1 μM, 1 μM, 2 μM and 5 μM) (A) or p10 (0.1 μM, 1 μM, 2 μM, 5 μM and 100 μM) (B), relative to the fluorescence emitted by the free RNA. p10 caused a 2.9-increase in the fluorescence of 2-AP at 100 μM, which indicates a change towards single-stranded. This effect was not observed when incubating the RNA with DMSO, or with the alanine scanning peptides with sequences: ppyawa and payawe (C).
# In order to confirm whether said changes cause a loss of the hairpin loop structure, an experiment was performed using an RNA composed of 23 CUG repeats, wherein a guanine had been substituted with its analogue 2-aminopurine (2-AP-(CUG)23). When 2-AP is in a single-stranded environment, it emits fluorescence at 375 nm. […] However, upon increasing the concentration of p10 to 100 μM (RNA:peptide 1:100), the 2AP-(CUG)23 RNA underwent a conformational change, from double-stranded to single-stranded, with a 2.9-fold increase in the fluorescence emission of the molecule (FIG. 28B). In order to confirm the specificity of this effect, the same experiment was performed, incubating the alanine scanning peptides (payawe and ppyawa) with the 2-AP-(CUG)23 RNA at the same concentration as p10 (100 μM).
# As may be observed in FIG. 29, in this example we use the 2-aminopurine assay in order to assay 4 peptides (p11, p5, p12 and p15) in addition to p10, obtained from the deconvolution of the combinatorial peptide library explained in this invention. […] The concentration used in all cases is 100 μM.
# [6] = system: GMR-Gal4 UAS-CTG(480) flies; assay: Endogenous expression of p10-derived peptides (Gal4/UAS), rough eye phenotype; assay type: in vivo, Drosophila
# From the text: Thus, three different transgenes were designed, with SEQ ID NO: 17-19 (p17-p19), which encoded different peptides, all based on sequence SEQ ID NO: 10 corresponding to p10 (FIG. 9), taking into consideration the codon usage bias in Drosophila (i.e. favouring the use of G, and in particular C, in the synonymous sites; Powell & Moriyama, 1997) and adding an initial Methionine, as well as three spacer Glycines, to sequence SEQ ID NO: 10. Moreover, upstream from the […] initiation codon, 21 nucleotides of the 5′UTR end of the act5C gene of Drosophila which included the Kozak sequence were added, in order to enhance the expression of the transgenes.
# p17 contained the direct sequence of the peptide of SEQ ID NO: 10. As discussed above, the peptides in the hexapeptide chemical library are composed of D-amino acids. The D-forms (dextrogyre) of amino acids are stereoisomers of the L-forms (levogyres) and only L-amino acids are synthesised in the cells and incorporated into proteins. Consequently, if the arrangement of the lateral chains of p10 is important for the function thereof, the latter would be lost when p17 is synthesised by Drosophila from L-aa. For this reason, it was decided to generate construct p18, wherein the peptide sequence of SEQ ID NO: 10 was inverted, leading to a retro-inverse peptide (Chorev & Goodman, 1995; P. M. Fischer, 2003). At the time when these transgenes were generated, the smallest constructs described in the literature encoded peptides with more than 20 amino acids, which is more than twice the size of peptides p17 and p18 (which have only ten amino acids). For this reason, construct p19 was generated, which combined the constructs of peptides p17 and p18, leading to a peptide with 19 amino acids. The three constructs were microinjected in the precursors of the germinal line of Drosophila embryos, leading to 10 lines of transgenic flies for each transgene.
# (§1) The transgenic flies obtained were crossed with the GMR-Gal4 UAS-CTG(480)/CyO and Mhc-Gal4 UAS-CTG(480)/TM6b recombinant fly lines generated during this invention, which directed the expression of the CTG repeats in the eye and the muscle, respectively. As in the case of the sev-Gal4 UAS-CTG(480)/+ flies, the adult GMR-Gal4 UAS-CTG(480)/UAS-GFP flies presented a strong rough eye phenotype. […] However, the opposite phenomenon occurred at 25° C. and at 29° C. […] Given that changes in temperature affect the expression of the CTG(480) transgenes and peptides p17-p19 in a different manner, since the latter are inserted in different regions of the genome, there may be a relation between the quantity of peptide and of repeats that must be reached, whereafter p10 becomes toxic.
# [7] = system: Mhc-Gal4 UAS-CTG(480) flies; assay: Endogenous expression of p10-derived peptides in the IFMs; assay type: in vivo, Drosophila; conditions: Mhc-Gal4 line at 25° C., recently ecloded adults
# Experimental: as §1
# This confirms the effect of p10 on CTG(480). Once again, only those lines that carried the p18 and p19 transgenes modified the phenotype.
# [8] = system: CUG60 RNA; assay: Circular dichroism of CUG60 RNA; assay type: binding; conditions: RNA 1 μM, p10 0.1-20 μM, MblZF 1 and 1.5 μM, ppyawa 0.5 and 1 μM, payawe 1 μM
# Experimental: However, this effect was not reverted when the RNA was incubated jointly with MblZF and p10, regardless of the order of addition (C).
# In order to study possible changes in the secondary structure of RNA induced by p10, in the first place we performed a circular dichroism (CD) experiment, using an RNA with unlabelled CUG repeats (CUG60). The circular dichroism of nucleic acids is caused by the stacking of the bases that make up the sequence thereof. Consequently, when a molecule binds to RNA, affecting the structure thereof, a change is detected in its CD spectrum. […] When we incubated the RNA with increasing concentrations of the peptide of SEQ ID NO: 10 (0.1 μM, 0.5 μM, 1 μM, 10 μM and 20 μM), a similar effect was observed (FIG. 27B). During the readings, the RNA was kept in the cuvette inside the dichrograph at 10° C. Throughout the 3 hours of each experiment, it was possible for the RNA to have been degraded; this would explain the decrease in the intensity of the signal observed. In order to rule out this possibility, the CD spectrum of CUG60 RNA was measured at times 0 and 3 h, having kept the CUG60 RNA at 10° C. at all times.
compound,measurement,setting,value
NC[C@@H]1O[C@H](O[C@H]2[C@@H](O)[C@H](O[C@@H]3[C@@H](O)[C@H](N)C[C@H](N)[C@H]3O[C@H]3O[C@H](CN)[C@@H](O)[C@H](O)[C@H]3N)O[C@@H]2CO)[C@H](N)[C@@H](O)[C@@H]1O [neomycin B],binding of MBNL1 to the CUG repeats,[1],inhibited the binding of MBNL1
CN1C(=Cc2cc[n+](C)c3ccccc23)Sc2ccccc21 [thiazole orange],binding of MBNL1 to the CUG repeats,[1],inhibited the binding of MBNL1
apyawe,significant binding to FAM-(CUG)23 RNA,[2],None
same,"activity on lethality phenotype (number of females), alanine scanning",[3],loss of activity
p5: defined hexapeptide obtained following deconvolution of the D-amino acid combinatorial library ([dC][dQ][dY][dA][dQ][dE]),Treated born/Control born,[4]; 25 μM,2.0
same,"destructuration of CUG23 probe, comparative 2-aminopurine assay",[5],significant levels of specificity and efficacy
p15: defined hexapeptide obtained following deconvolution of the D-amino acid combinatorial library ([dP][dQ][dY][dT][dQ][dE]),Treated born/Control born,[4]; 40 μM,0.5
same,"destructuration of CUG23 probe, comparative 2-aminopurine assay",[5],significant levels of specificity and efficacy
p18: endogenously expressed ten amino acid peptide with the sequence of p10 inverted (retro-inverse) (MGGGEWAYPP; not fully specified),rough eye phenotype on co-expression with CTG(480),[6]; 19° C. and 21° C.,visibly less rough
same,eye phenotype on co-expression with CTG(480),[6]; 25° C.,enhanced the toxicity of the CTG repeats
same,phenotype of expression of peptide by itself,"[6]; 25° C. and 29° C., without CTG(480)",did not cause any phenotype
same,offspring of crossing with GMR-Gal4 UAS-CTG(480)/CyO,[6]; 29° C.,did not produce offspring without the CyO balancer
same,transgenic lines assayed that modified the phenotype of GMR-Gal4 UAS-CTG(480) flies,[6]; in vivo,all the lines
same,histological defects of the IFMs on co-expression with CTG(480),[7],suppressed the histological defects of the IFMs
payawe,increase in the fluorescence emission of 2-AP-(CUG)23,"[5]; peptide 100 μM, RNA 1 μM (1:100)",None of these peptides caused changes
same,change of circular dichroism spectrum of CUG60,[8],did not occur
same,change of circular dichroism spectrum of CUG60,[8]; listed as p29.4,did not change the RNA spectrum
same,significant binding to FAM-(CUG)23 RNA,[2],None
same,"activity on lethality phenotype (number of females), alanine scanning",[3],loss of activity
ppaawe,significant binding to FAM-(CUG)23 RNA,[2],None
same,"activity on lethality phenotype (number of females), alanine scanning",[3],loss of activity
ppyaae,significant binding to FAM-(CUG)23 RNA,[2],None
same,"activity on lethality phenotype (number of females), alanine scanning",[3],loss of activity
